This note sets out measurements from paper PMC12374581 (European journal of medicinal chemistry, 2025).

Several values for one entry are separate records, joined by “and”; a condition that tells them apart may be missing. Equal values may be shown once. Read-outs that look alike come from different tables or passages of the source.

Data set [1] has as its target human μ opioid receptor β-arrestin-2 (Homo sapiens, UniProt P35372). Description: cell-based. To be noted: for Emax: read-out: β-Arrestin Recruitment %Emax ± SEM. In general terms: Arrestin recruitment assays detect the binding of arrestin to an activated receptor.
For data set [2], the target named is human μ opioid receptor (OPRM1) (Homo sapiens, UniProt P35372). Description: cell-based. It counts as cell-based. The settings on record: for Emax: OPRM1, read-out: MOR cAMP %Emax ± SEM.
human μ opioid receptor (OPRM1), sequence (P35372 whole entry): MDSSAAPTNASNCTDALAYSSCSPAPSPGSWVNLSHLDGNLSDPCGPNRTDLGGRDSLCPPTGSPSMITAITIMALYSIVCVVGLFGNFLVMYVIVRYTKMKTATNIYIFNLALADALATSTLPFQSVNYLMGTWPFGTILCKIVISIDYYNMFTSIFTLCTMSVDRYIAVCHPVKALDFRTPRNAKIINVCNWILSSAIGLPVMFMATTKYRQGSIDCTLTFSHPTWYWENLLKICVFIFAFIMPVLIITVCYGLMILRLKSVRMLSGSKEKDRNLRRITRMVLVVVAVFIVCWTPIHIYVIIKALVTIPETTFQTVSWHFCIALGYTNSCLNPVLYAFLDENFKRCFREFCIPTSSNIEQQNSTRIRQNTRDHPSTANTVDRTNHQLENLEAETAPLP
Data set [3] in a line: in vitro. The settings on record: mouse, microsomes.
Data set [4] can be described thus: in vitro. To be noted: human, microsomes.
The test system of data set [5] is B6129/F1 hybrid mice. Description: Naloxone pre-treatment antagonist study in hot plate test. Type of data set: in vivo, mouse. The settings on record: naloxone 10 mg/kg pretreatment, agonist 10 mg/kg. A general note: In hot-plate and tail-flick tests a longer latency is read as antinociception.
The target of data set [6] is nociceptin receptor (OPRL1) (Homo sapiens, UniProt P41146). The experiment in a line: cell-based. Type of data set: cell-based. To be noted: for Emax: read-out: NOR cAMP Emax ± SEM (%).
nociceptin receptor (OPRL1), sequence (P41146 whole entry): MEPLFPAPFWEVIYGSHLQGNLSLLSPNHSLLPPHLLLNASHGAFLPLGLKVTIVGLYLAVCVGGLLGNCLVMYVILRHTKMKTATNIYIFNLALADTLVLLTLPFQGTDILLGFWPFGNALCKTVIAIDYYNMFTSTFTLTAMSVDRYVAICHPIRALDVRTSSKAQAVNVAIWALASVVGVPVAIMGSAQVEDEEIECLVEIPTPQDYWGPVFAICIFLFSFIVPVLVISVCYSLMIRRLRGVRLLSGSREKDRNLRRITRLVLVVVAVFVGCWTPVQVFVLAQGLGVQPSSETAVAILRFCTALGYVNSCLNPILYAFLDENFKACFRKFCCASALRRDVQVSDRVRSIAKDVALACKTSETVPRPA
For data set [7], the system named is B6129/F1 hybrid mice. The experiment in a line: Hot plate test. The settings on record: for ED50: Mus musculus, read-out: ED50 (antinociception, hot plate); for in vivo agonist profile (antinociception): hot plate, mice; for in vivo agonist profile (antinociception) / Emax (maximal possible effect at the highest dose, hot plate): i.p.; for Emax (maximal possible effect at the highest dose, hot plate): cumulative doses, B6129/F1 mice, nonlinear regression. It counts as in vivo, mouse.

Data set [8] addresses human δ opioid receptor (OPRD1) (Homo sapiens, UniProt P41143). Description: cell-based. It counts as cell-based. The settings on record: for Emax: read-out: DOR cAMP Emax ± SEM (%).
The nature of data set [9]: Solubility observed for in vivo dosing.
Data set [10] has as its target κ opioid receptor (OPRK1) (Homo sapiens, UniProt P41145). Description: cell-based. The settings on record: for Emax: read-out: KOR cAMP Emax ± SEM (%).
[11] abbreviates: read-out: β-Arrestin Recruitment EC50.

As a reminder, the EC50 is the concentration giving half of the maximal effect. Broadly, the Emax is the size of the effect at its maximum, as opposed to the concentration needed. As usually defined, the half-life is the time needed for the level to fall by half in the phase considered. Broadly, the ED50 is the dose that gives a 50% effect, or the effect in half of the subjects.

human δ opioid receptor (OPRD1), sequence (P41143 whole entry): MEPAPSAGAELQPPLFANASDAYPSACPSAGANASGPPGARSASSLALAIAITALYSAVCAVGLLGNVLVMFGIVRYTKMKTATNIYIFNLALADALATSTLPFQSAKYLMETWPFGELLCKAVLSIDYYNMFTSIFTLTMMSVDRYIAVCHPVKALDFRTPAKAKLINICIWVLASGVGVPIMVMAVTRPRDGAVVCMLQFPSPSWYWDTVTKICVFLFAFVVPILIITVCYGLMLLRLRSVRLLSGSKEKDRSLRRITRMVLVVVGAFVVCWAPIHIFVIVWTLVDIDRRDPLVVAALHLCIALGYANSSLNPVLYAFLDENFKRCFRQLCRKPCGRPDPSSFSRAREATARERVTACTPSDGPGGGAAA
κ opioid receptor (OPRK1), sequence (P41145 whole entry): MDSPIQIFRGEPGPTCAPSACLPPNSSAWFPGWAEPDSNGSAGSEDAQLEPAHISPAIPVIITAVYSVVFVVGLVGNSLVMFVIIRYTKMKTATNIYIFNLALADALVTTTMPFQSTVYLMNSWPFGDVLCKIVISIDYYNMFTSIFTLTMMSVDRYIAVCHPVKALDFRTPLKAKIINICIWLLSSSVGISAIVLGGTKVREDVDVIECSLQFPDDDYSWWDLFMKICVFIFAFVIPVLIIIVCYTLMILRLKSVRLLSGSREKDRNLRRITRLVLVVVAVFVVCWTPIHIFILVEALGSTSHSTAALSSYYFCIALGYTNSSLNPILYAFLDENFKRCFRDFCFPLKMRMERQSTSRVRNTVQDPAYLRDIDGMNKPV
human μ opioid receptor β-arrestin-2, sequence (P35372 whole entry): as the sequence (P35372 whole entry) above

On to `Oc1ccc(N2C3CCC2CN(CCCc2ccccc2)C3)cc1` [Compound 1, 4-(3-(3-Phenylpropyl)-3,8-diazabicyclo[3.2.1]octan-8-yl)phenol], for which, in data set [1], the EC50 is more than 10000 nM and the Emax is 0%. Besides, the EC50 in data set [1] (setting [11]) was more than 10000 nM. In addition, in data set [2], the midpoint of the response, the EC50, lay at 250 nM; the “fold reduction in MOR cAMP potency compared to atoxifent” value is on record as 700 fold; the Emax came out at 58.7 ± 5.8%.

As for `OCc1cccc(N2C3CCC2CN(CCCc2ccccc2)C3)c1` [Compound 3, (3-(3-(3-Phenylpropyl)-3,8-diazabicyclo[3.2.1]octan-8-yl)phenyl)methanol], in data set [2], a half-maximal effect (EC50) was put at 20 nM and the Emax was found to be 102 ± 1.1%.

Turning to `CC(C)(O)c1cccc(N2C3CCC2CN(CCCc2ccccc2)C3)c1` [Compound 4, 2-(3-(3-(3-Phenylpropyl)-3,8-diazabicyclo[3.2.1]octan-8-yl)phenyl)propan-2-ol], in data set [2], a half-maximal effect (EC50) was put at 250 nM, the “fold decrease in MOR cAMP activity compared to 3” value is recorded as 12 fold and the Emax is 107.8 ± 0.9%.

In the case of `OC1(c2cccc(N3C4CCC3CN(CCCc3ccccc3)C4)c2)COC1` [Compound 5, 3-(3-(3-(3-Phenylpropyl)-3,8-diazabicyclo[3.2.1]octan-8-yl)phenyl)oxetan-3-ol], in [2], the EC50 amounted to 63 nM and the maximal effect (Emax) is 102.6 ± 0.5%.

In the case of `Oc1cc(Cl)cc(N2C3CCC2CN(CCCc2ccccc2)C3)c1` [Compound 6, 3-Chloro-5-(3-(3-phenylpropyl)-3,8-diazabicyclo[3.2.1]octan-8-yl)phenol], in [2], the EC50 came to 20 nM and the Emax was determined as 99.6 ± 1.1%.

With `Oc1cc(F)cc(N2C3CCC2CN(CCCc2ccccc2)C3)c1` [Compound 8, 3-Fluoro-5-(3-(3-phenylpropyl)-3,8-diazabicyclo[3.2.1]octan-8-yl)phenol], the half-life stood at 3.3 min in the data set “in vitro [3]” and 26.6 min in the data set “in vitro [4]”. Further, the EC50 is more than 10000 nM in [1], more than 10000 nM in data set [1] (setting [11]) and 0.79 nM in data set [2]. Besides, the Emax came out at 0% in data set [1] and 99.9 ± 0.6% in data set [2].

Regarding `FC(F)c1cccc(N2C3CCC2CN(CCCc2ccccc2)C3)c1` [Compound 9, 8-(3-(Difluoromethyl)phenyl)-3-(3-phenylpropyl)-3,8-diazabicyclo[3.2.1]octane], the figures for the EC50 in data set [1], in [1] (setting [11]) and in data set [2] were more than 10000 nM, more than 10000 nM and 13 nM, respectively. Further, the Emax in data set [2] was determined as 102.6 ± 1%.

As for `O=[N+]([O-])c1cccc(N2C3CCC2CN(CCCc2ccccc2)C3)c1` [Compound 10, 8-(3-Nitrophenyl)-3-(3-phenylpropyl)-3,8-diazabicyclo[3.2.1]octane], the values for the EC50 in data set [1], in data set [1] (setting [11]) and in data set [2] were more than 10000 nM, more than 10000 nM and 10 nM, respectively. The Emax in data set [1] was found to be 0%; in data set [2], 100.6 ± 0.4%.

In the case of `Nc1cccc(N2C3CCC2CN(CCCc2ccccc2)C3)c1` [Compound 11, 3-(3-(3-Phenylpropyl)-3,8-diazabicyclo[3.2.1]octan-8-yl)aniline], the “effect of naloxone pretreatment on antinociceptive effects” value in the data set with B6129/F1 hybrid mice [5] was “antagonized by naloxone”. The EC50 is more than 10000 nM in data set [6] (NOR cAMP EC50 (nM)); more than 10000 nM in data set [6] (NOR cAMP pEC50± SEM); more than 10000 nM in data set [1]; more than 10000 nM in data set [1] (setting [11]); 1.6 nM in [8]; more than 10000 nM in data set [10]. This compound also yielded an EC50 in data set [2] of 0.25 nM. Moreover, the Emax came out at 0% in data set [6]; 0% in data set [1]; 71.1 ± 3.6% in data set [8]; 0% in [10]; 104 ± 2.4% in data set [2]. Moreover, in the data set on B6129/F1 hybrid mice [7] (ip), the ED50 is 0.849 mg/kg. Also, in the data set on B6129/F1 hybrid mice [7], the “in vivo agonist profile (antinociception)” value is given as “partial agonists”. In addition, the “Emax (maximal possible effect at the highest dose, hot plate)” value with B6129/F1 hybrid mice [7] was 43.86 % MPE and 44 % MPE. The half-life in the data set “in vitro [3]” turned out to be 3.5 min; in the data set “in vitro [4]” it was 36.5 min. For the same compound, in data set [9], the “solubility (in words)” value is given as “poorly soluble”.

Turning to `O=S(=O)(Nc1cccc(N2C3CCC2CN(CCCc2ccccc2)C3)c1)C1CC1` [Compound 12, N-(3-(3-(3-Phenylpropyl)-3,8-diazabicyclo[3.2.1]octan-8-yl)phenyl)cyclopropane-sulfonamide], the “effect of naloxone pretreatment on antinociceptive effects” value in the data set with B6129/F1 hybrid mice [5] is recorded as “antagonized by naloxone”. For the same compound, the EC50 in data set [6] (NOR cAMP EC50 (nM)) was more than 10000 nM; in data set [6] (NOR cAMP pEC50± SEM), more than 10000 nM; in data set [1], 25 nM; in data set [8], 1.6 nM; in data set [10] it was more than 10000 nM; in data set [2], 0.5 nM. Moreover, the Emax in data set [6] worked out at 0%; in data set [1], 4.3 ± 0.2%; in data set [8] it was 71 ± 4.7%; in data set [10], 0%; in data set [2], 98.8 ± 0.4%. In addition, in the data set with B6129/F1 hybrid mice [7] (ip), the ED50 was determined as 2.8 mg/kg. The “in vivo agonist profile (antinociception)” value with B6129/F1 hybrid mice [7] is listed as “partial agonists”. The “Emax (maximal possible effect at the highest dose, hot plate)” value with B6129/F1 hybrid mice [7] is 33.45 % MPE and 33 % MPE. Further, the half-life in the data set “in vitro [3]” stood at 6.4 min; in “in vitro [4]” it was 35.6 min. Further, the “solubility (in words)” value in data set [9] is recorded as “poorly soluble”.

In the case of `NC(=O)c1ccccc1N1C2CCC1CN(CCCc1ccccc1)C2` [Compound 14, 2-(3-(3-Phenylpropyl)-3,8-diazabicyclo[3.2.1]octan-8-yl)benzamide], in [1], the EC50 worked out at 700 nM and the Emax turned out to be 26.5 ± 2.4%. In data set [2], the EC50 was 3.2 nM, the “fold decrease in MOR cAMP activity compared to 13” value was approximately 14 fold and the Emax is 101.6 ± 0.6%.

On to `NC(=O)c1ccc(N2C3CCC2CN(CCCc2ccccc2)C3)cc1` [Compound 15, 4-(3-(3-Phenylpropyl)-3,8-diazabicyclo[3.2.1]octan-8-yl)benzamide], for which the EC50 in data set [2] and in data set [2] (read-out: MOR cAMP EC50) was more than 10000 nM in each case.

For `NC(=O)c1cc(N2C3CCC2CN(CCCc2ccccc2)C3)ccc1O` [Compound 16, 2-Hydroxy-5-(3-(3-phenylpropyl)-3,8-diazabicyclo[3.2.1]octan-8-yl)benzamide], in [6], the “agonist activity at NORs (in words)” value is recorded as “no agonist activity”. Also, the EC50 in data set [6] (NOR cAMP EC50 (nM)) is more than 10000 nM; in [6] (NOR cAMP pEC50± SEM), more than 10000 nM; in data set [1], more than 10000 nM; in data set [1] (setting [11]), more than 10000 nM; in data set [8], 16 nM; in data set [2], 4 nM. The Emax worked out at 0% in [6], 0% in data set [1], 34.8 ± 3% in data set [8] and 60.9 ± 3.9% in data set [2]. For the same compound, the half-life in the data set “in vitro [3]” turned out to be 2.1 min; in “in vitro [4]”, 13 min.

Take `NC(=O)c1cc(N2C3CCC2CN(CCCc2ccccc2)C3)ccc1F` [Compound 18, 2-Fluoro-5-(3-(3-phenylpropyl)-3,8-diazabicyclo[3.2.1]octan-8-yl)benzamide]: the EC50 in data set [6] (NOR cAMP EC50 (nM)) is 25 nM; in data set [6] (NOR cAMP pEC50± SEM) it was 25.1 nM; in data set [1], more than 10000 nM; in data set [1] (setting [11]), more than 10000 nM; in [8], 160 nM; in data set [2], 10 nM. For the same compound, the Emax in data set [6] was 41.9 ± 19.3%; in data set [8] it was 56.2 ± 6.2%; in data set [2], 100.2 ± 0.5%.

Consider `NC(=O)c1cccc(N2C3CCC2CN(CCCc2ccccc2)C3)c1F` [Compound 19, 2-Fluoro-3-(3-(3-phenylpropyl)-3,8-diazabicyclo[3.2.1]octan-8-yl)benzamide], for which the EC50 was 3.2 nM in data set [6] (NOR cAMP EC50 (nM)); 3.16 nM in data set [6] (NOR cAMP pEC50± SEM); more than 10000 nM in [1]; more than 10000 nM in data set [1] (setting [11]); 13 nM in [8]; 2.5 nM in data set [2]. The Emax was 19.5 ± 3.4% in [6], 0% in [1], 71.4 ± 1.8% in data set [8] and 101.2 ± 0.6% in [2].

For `c1ccc(CCCN2CC3CCC(C2)N3c2cccc(-c3ncco3)c2)cc1` [Compound 20, 2-(3-(3-(3-Phenylpropyl)-3,8-diazabicyclo[3.2.1]octan-8-yl)phenyl)oxazole], in [2], the response was half-maximal at 320 nM (EC50) and the Emax was 100 ± 0.1%.

With `C[C@@H](NC(=O)[C@@H](N)Cc1ccc(O)cc1)C(=O)NCC(=O)N(C)[C@@H](Cc1ccccc1)C(=O)NCCO` [DAMGO, reference compound], the Emax in data set [1] is 102.3 ± 0.2%.

With Buprenorphine [reference compound], in the data set with B6129/F1 hybrid mice [7] (mouse, in vivo, ip), the “ED50 (antinociception, hot plate)” value is recorded as 0.6441 mg/kg.
